Data from US8329738B2, “Use of AMPK-activating imidazole derivatives, preparation process therefor and pharmaceutical compositions comprising them” (Merck Patent Gesellschaft mit Beschränkter Haftung, priority 2006, dated 2012).

Legend:
AMPK = AMPK activation: phosphorylation of peptide AMARAA, Delfia protocol; type: biochemical; details: relative to the basal activity (100%) obtained in the absence of AMP, partially purified AMPK from rat liver
Description: 25 mU of AMPK are incubated in the presence of different concentrations of AMP or of products, for 30 minutes at 30° C., in a final volume of 30 μl comprising 50 mM Hepes, 19 mM MgCl2, 125 μM ATP, 5 mM NaPPi, 1 mM EDTA, 1 mM DTT, 2 mM Na3VO4 and 25 μM of peptide AMARAA biotinyl (Biot-NH-AMARAASAAALARRR-COOH).
The phosphorylation of the peptide AMARAA is then measured according to a Delfia protocol (Perkin-Elmer), using a europium-labelled anti-phospho-serine specific antibody.
The AMPK used in this test is a partially purified protein from rat liver.
The percentage of activation is calculated relative to the basal activity (100%) obtained in the absence of AMP.

| SMILES | melting point | % Activation at 200 μM (AMPK) |
| --- | --- | --- |
| NC(=O)c1ncn(CCOc2ccc(F)cc2)c1O [Example 1, 1-[2-(4-fluorophenoxy)ethyl]-5-hydroxy-1H-imidazole-4-carboxamide] | 204 °C |  |
| NC(=O)c1ncn(CCOc2ccccc2)c1O [Example 2, 5-hydroxy-1-(2-phenoxyethyl)-1H-imidazole-4-carboxamide] | 192 °C |  |
| N#Cc1ccc(OCCn2cnc(C(N)=O)c2O)cc1 [Example 3, 1-[2-(4-cyanophenoxy)ethyl]-5-hydroxy-1H-imidazole-4-carboxamide] | 190 °C |  |
| COC(=O)c1ccc(OCCn2cnc(C(N)=O)c2O)cc1 [Example 4, methyl 4-[2-(4-carbamoyl-5-hydroxyimidazol-1-yl)ethoxy]benzoate] | 190 °C |  |
| CCOC(=O)c1ncn(CCOc2ccc(C#N)cc2)c1O [Example 6, ethyl 5-hydroxy-1-[2-(-4-cyanophenoxy)ethyl]-1H-imidazole-4-carboxylate] | 190 °C |  |
| CCOC(=O)c1ncn(CCOc2ccc(F)cc2)c1O [Example 7, ethyl 5-hydroxy-1-[2-(-4-fluorophenoxy)ethyl]-1H-imidazole-4-carboxylate] | 200 °C |  |
| CCOC(=O)c1ncn(CCOc2ccc(C(=O)OC)cc2)c1O [Example 8, ethyl 5-hydroxy-1-{2-[-4(methoxycarbonyl)phenoxy]ethyl}-1H-imidazole-4-carboxylate] | 202 °C |  |
| CCOC(=O)c1ncn(Cc2ccccc2)c1OC [Example 9, ethyl 1-benzyl-5-methoxy-1H-imidazole-4-carboxylate] | 150 to 153 °C |  |
| NC(=O)c1c(O)ncn1Cc1ccc(F)cc1 [Example 10, 5-hydroxy-3-(4-fluorobenzyl)imidazole-4-carboxamide] | 230 to 234 °C |  |
| NC(=O)c1c(O)ncn1Cc1ccc(Cl)cc1 [Example 11, 5-hydroxy-3(4-chlorobenzyl)imidazole 4-carboxamide] | 206 to 212 °C |  |
| COc1ccc(NC(=O)Nc2ccc(Cn3cnc(O)c3C(N)=O)cc2)cc1 [Example 43, 5-hydroxy-3-{4-[3-(4-methoxyphenyl)ureido]benzyl}-3H-imidazole-4-carboxamide] |  | 229% |
| NC(=O)c1c(O)ncn1Cc1ccc(NC(=O)Nc2ccc(Cl)cc2)cc1 [Example 44, 5-hydroxy-3-{4-[3-(4-chlorophenyl)ureido]benzyl}-3H-imidazole-4-carboxamide] |  | 147% |
| NC(=O)c1c(O)ncn1Cc1ccc(NC(=O)Nc2cccc3ccccc23)cc1 [Example 47, 5-hydroxy-3-[4-(3-naphthalen-1-ylureido)benzyl]-3H-imidazole-4-carboxamide] |  | 184% |
| CCc1ccc(NC(=O)Nc2ccc(Cn3cnc(O)c3C(N)=O)cc2)cc1 [Example 56, 5-hydroxy-3-{4-[3-(4-ethylphenyl)ureido]benzyl}-3H-imidazole-4-carboxamide] |  | 289% |
| CSc1ccc(NC(=O)Nc2ccc(Cn3cnc(O)c3C(N)=O)cc2)cc1 [Example 58, 5-hydroxy-3-{4-[3-(4-methylsulfanylphenyl)ureido]benzyl}-3H-imidazole-4-carboxamide] |  | 311% |

The next lines start with results.

| melting point | SMILES | % Activation at 200 μM (AMPK) |
| --- | --- | --- |
| 266 to 268 °C | CCOC(=O)c1ccc(Cn2cnc(O)c2C(N)=O)cc1 [Example 12, 5-hydroxy-3-[4-(ethoxycarbonyl)benzyl]imidazole-4-carboxamide] |  |
| 182 °C | NC(=O)c1c(O)ncn1-c1ccccc1 [Example 13, 5-hydroxy-3-phenylimidazole-4-carboxamide] |  |
| 230 °C | NC(=O)c1c(O)ncn1CCOc1ccc(F)cc1 [Example 15, 3-[2-(4-fluorophenoxy)ethyl]-5-hydroxy-3H-imidazole-4-carboxamide] |  |
| 264 °C | N#Cc1ccc(OCCn2cnc(O)c2C(N)=O)cc1 [Example 16, 3-[2-(4-cyanophenoxy)ethyl]-5-hydroxy-3H-imidazole-4-carboxamide] |  |
| 263 °C | COC(=O)c1ccc(OCCn2cnc(O)c2C(N)=O)cc1 [Example 16b is, methyl 4-[2-(5-carbamoyl-4-hydroxyimidazol-1-yl)ethoxy]-benzoate] |  |
| 230 to 231 °C | NC(=O)c1c(O)ncn1Cc1ccc(N)cc1 [Example 18, 3-(4-aminobenzyl)-5-hydroxy-3H-imidazole-4-carboxamide] |  |
| 201 to 203 °C | COc1ncn(Cc2ccc([N+](=O)[O-])cc2)c1C(N)=O [Example 19, 3-(4-nitrobenzyl)-5-methoxy-3H-imidazole-4-carboxamide] |  |
| 193 to 195 °C | NC(=O)c1c(OCc2ccccc2)ncn1Cc1ccc([N+](=O)[O-])cc1 [Example 20, 3-(4-nitrobenzyl)-5-benzyloxy-3H-imidazole-4-carboxamide] |  |
| 257 to 259 °C | COc1cccc(C(=O)Nc2ccc(Cn3cnc(O)c3C(N)=O)cc2)c1 [Example 21, 5-hydroxy-3-[4-(3-methoxybenzoylamino)benzyl]-3H-imidazole-4-carboxamide] |  |
| 232 to 235 °C | NC(=O)c1c(O)ncn1Cc1ccc(NC(=O)Nc2ccccc2)cc1 [Example 41, 5-hydroxy-3-[4-(3-phenylureido)benzyl]-3H-imidazole-4-carboxamide] |  |
| 243 to 244 °C | NC(=O)Nc1ccc(Cn2cnc(O)c2C(N)=O)cc1 [Example 42, 5-hydroxy-3-[4-ureidobenzyl]-3H-imidazole-4-carboxamide] |  |
| 218 to 220 °C | NC(=O)c1c(O)ncn1Cc1ccc(NC(=O)Nc2cccc(C(=O)O)c2)cc1 [Example 70, 3-{3-[4-(5-carbamoyl-4-hydroxyimidazol-1-ylmethyl)phenyl]ureido}benzoic acid] |  |
